# Assays:
# zebrafish = test: Toxicity to zebrafish, semi-static method, 96 hours; details: 8 h
# Experimental: Test agents: avermectin, milbemycin, ivermectin, tenvermectin A and tenvermectin B were all from Zhejiang Hisun Pharmaceutical Co., Ltd. The samples were formulated into 50 mg/ml mother liquors with DMF.
# Test fish and water: zebrafish (Brachydanio rerio) was purchased from Zhejiang Academy of Agricultural Sciences, with the same size, average body length of 2-3 cm and average body weight of 0.3 g. The zebrafish was domesticated for 7 days indoors before the test. […] Feeding was stopped 1 day before the test and the fish were not fed during the test. The test water was tap water with residual chlorine removed by exposure to the sun for more than 24 hours, and the pH thereof was 6.8.
# Test methods: semi-static method. Three level differences were provided for each sample: 0.5 ppm, 1.0 ppm and 1.5 ppm, and three parallel groups were provided for each level difference, 10 zebrafish were raised for each group, and blank controls (one group without agents and one group with only solvent) were provided. The corresponding volume of mother liquor was taken according to the concentration as required for each sample, and the volume of each sample was adjusted to 150 μl with DMF, and then each sample was added to the test group (containing 1.6 L of water). The room temperature was controlled at 22±2° C. for 96 hours, and the water was changed every 24 hours and the samples were re-added. The fish mortality rate was recorded for the first 8 hours and at 24, 48, 72 and 96 hours, and the dead fish were removed in time.
# [1] = test system: allogynogenetic crucian carp; test: Toxicity to allogynogenetic crucian carp, semi-static method, 96 hours; format: in vivo
# From the text: Test fish and water: allogynogenetic crucian carp was purchased from Taowang Farm in Jiaojiang District, Taizhou City, with a body length of (9.60±0.52) cm and a body weight of (28.22±3.44) g. The healthy and vigorous fish with the same size were selected and temporarily raised in an indoor aquarium. They were domesticated for 7 days indoors before the test. The natural mortality rate was zero.
# 99.4% Tenvermectin A (the mass content of tenvermectin B was 0.02%) (Zhejiang Hisun Pharmaceutical Co., Ltd.);
# Tenvermectin (the mass ratio of tenvermectin A/tenvermectin B was 95/5) (Zhejiang Hisun Pharmaceutical Co., Ltd.);
# Tenvermectin (the mass ratio of tenvermectin A/tenvermectin B was 90/10) (Zhejiang Hisun Pharmaceutical Co., Ltd.);
# Tenvermectin (the mass ratio of tenvermectin A/tenvermectin B was 85/15) (Zhejiang Hisun Pharmaceutical Co., Ltd.);
# 99.1% Tenvermectin B (the mass content of tenvermectin A was 0.51%) (Zhejiang Hisun Pharmaceutical Co., Ltd.);
# 92% Avermectin (Zhejiang Qianjiang Biochemical Co., Ltd.);
# 96% Ivermectin (Zhejiang Hisun Pharmaceutical Co., Ltd.);
# 90% Methylamino avermectin benzoate (Emamectin benzoate) (Zhejiang Shenghua Biok Biotechnology Co., Ltd.).
# Method: semi-static method. […]
# [2] = test system: swine nematode (nematodes in the digestive tract); test: Repelling swine nematode in naturally infected pigs (fecal egg count, McMaster's method); format: in vivo; details: 1% injection 0.2 mg/kg bw s.c.
# From the text: (§1) Test agents: 1% ivermectin injection, 1% tenvermectin A injection, and 1% tenvermectin B injection as obtained in Example 1.
# (§2) Test animals and grouping: pigs cultured in the same farm were selected, and 40 pigs naturally infected with nematodes in the digestive tract were selected for testing through fecal examination. The average weight of the test pigs was 30-50 kg. Forty pigs were randomly divided into 4 groups, 10 for each group. The first group was the ivermectin control group, the second group was the tenvermectin A group, and the third group was the tenvermectin B group. All the medicated groups were injected subcutaneously in the neck according to 0.2 mg/kg·bw. The forth group was a blank group and was not administered.
# (§3) 1) The feces of the pigs in each group were collected and examined one by one a day before administration, and worm eggs were counted by the McMaster's method. The number of eggs per gram of feces (EPG) was counted and the condition of Haematopinus on the body surface was observed.
# (§4) 2) 1, 2, 3 and 4 weeks after administration, the feces of the pigs in each group were examined by the McMaster's method, and the EPG was counted and the changes of Haematopinus on the body surface were observed.
# 3) The negative conversion rates and egg reduction rates of the test pigs were calculated by a conventional method to assess the efficacy of repelling swine nematode.
# swine Haematopinus = test: Killing effect on swine Haematopinus on the body surface; format: in vivo; details: pigs, 1% injection 0.2 mg/kg bw s.c., until the 7th day and in the following 3 weeks
# From the text: as §1, §2, §3, §4
# 4) The killing effects of swine Haematopinus of the agents were assessed according to the survival of swine Haematopinus on the 7th day after administration.
# [3] = test system: digestive tract nematodes; test: Repelling nematode in digestive track of sheep (fecal egg count); format: in vivo
# From the text: as §1
# Test animals and grouping: sheep grazed under the same condition were selected, and 80 sheep of 0.8-2.0 years old naturally infected with digestive tract nematodes were selected through fecal examination. The average weight of the test sheep was 30 kg. The 80 sheep were randomly divided into 4 groups, 20 heads for each group. The first group was the ivermectin control group, the second group was the tenvermectin A group, and the third group was the tenvermectin B group. All the medicated groups were injected subcutaneously in the neck according to 0.2 mg/kg·bw. The fourth group was a blank group and was not medicated.
# 1) The feces of the sheep in each group were collected and examined one by one a day before administration, and the worm eggs were counted by the McMaster's method, and the number of eggs per gram of feces (EPG) was counted.
# 2) On the 9th day after administration, the sheep of each group were subjected to a fecal examination by McMaster's method, and EPG was counted.
# 3) The egg negative conversion rates and egg reduction rates were calculated according to a conventional method to assess the efficacy.
# Sarcoptes mites = test: Treatment of Sarcoptes mites of sheep (skin scrapings, live mites); format: in vivo; details: 1% injection 0.2 mg/kg bw s.c.; for Negative conversion number: sheep (10 per group); for Negative conversion rate (%): sheep
# From the text: Test agents: 1% ivermectin injection, 1% tenvermectin A injection and 1% tenvermectin B injection as obtained in Example 1.
# Test animals and grouping: sheep grazed under the same conditions were selected. Upon parasitological examination, 40 sheep which had been infected with sheep Sarcoptes mites were selected. The 40 sheep were randomly divided into 4 groups, 10 heads for each group. The first group was the ivermectin control group, the second group was the tenvermectin A group, and the third group was the tenvermectin B group. All the medicated groups were injected subcutaneously in the neck according to 0.2 mg/kg·bw. The fourth group was a blank group and was not medicated.
# Test methods: the changes of clinical symptoms were observed. The skin of sheep was scratched using a surgical blade with glycerin at the junction of the affected part and the healthy skin of the diseased sheep until the skin slightly bled. The skin scraps were taken then were placed in a dish and brought back to the laboratory. Then the skin scraps were placed on a slide, a drop of aqueous solution of 50% glycerol was added, and a cover slip was covered, and then the skin scraps were checked under a low magnification microscope. It was confirmed to be positive if live Sarcoptes mites were observed. Samples were taken before administration and at 1, 2, 3 and 4 weeks after administration to be examined. The samples were examined under a microscope, based on whether live mites were observed, the samples can be determined to be positive as long as one live mite was observed. Changes of clinical symptoms were observed as references.
# [4] = allogynogenetic crucian carp, 0.5 ppm, 8 h
# [5] = allogynogenetic crucian carp, 1.0 ppm, 8 h
# [6] = allogynogenetic crucian carp, 2.0 ppm, 8 h
# [7] = sheep, 1% injection 0.2 mg/kg bw s.c., 9th day after administration
compound,measurement,setting,value
"CC[C@H](C)[C@H]1O[C@]2(C=C[C@@H]1C)C[C@@H]1C[C@@H](C/C=C(\C)[C@@H](O[C@H]3C[C@H](OC)[C@@H](O[C@H]4C[C@H](OC)[C@@H](O)[C@H](C)O4)[C@H](C)O3)[C@@H](C)/C=C/C=C3\CO[C@@H]4[C@H](O)C(C)=C[C@@H](C(=O)O1)[C@]34O)O2 [Avermectin, reference compound]",Survival condition (survival rates/%),zebrafish; 0.5 ppm,0%
same,Survival condition (survival rates/%),zebrafish; 1.0 ppm,0%
same,Survival condition (survival rates/%),zebrafish; 1.5 ppm,0%
same,Survival condition (survival rates/%),[1]; [4],0%
same,Survival condition (survival rates/%),[1]; [5],0%
same,Survival condition (survival rates/%),[1]; [6],0%
"CC[C@H](C)C1O[C@]2(C=C[C@@H]1C)C[C@@H]1C[C@@H](C/C=C(\C)[C@@H](O[C@H]3C[C@H](OC)[C@@H](O[C@H]4C[C@H](OC)[C@H](NC)[C@H](C)O4)[C@H](C)O3)[C@@H](C)/C=C/C=C3\CO[C@@H]4[C@H](O)C(C)=C[C@@H](C(=O)O1)[C@]34O)O2.O=C(O)c1ccccc1 (some centres unmarked) [Methylamino avermectin benzoate, reference compound]",Survival condition (survival rates/%),zebrafish; 0.5 ppm,0%
same,Survival condition (survival rates/%),zebrafish; 1.0 ppm,0%
same,Survival condition (survival rates/%),zebrafish; 1.5 ppm,0%
same,Survival condition (survival rates/%),[1]; [4],0%
same,Survival condition (survival rates/%),[1]; [5],0%
same,Survival condition (survival rates/%),[1]; [6],0%
Ivermectin [reference compound],Egg reduction rate (%),[2]; 1st week after administration,76.2%
same,Negative conversion rate (%),[2]; 1st week after administration,70%
same,Egg reduction rate (%),[2]; 2nd week after administration,91.2%
same,Negative conversion rate (%),[2]; 2nd week after administration,90%
same,Egg reduction rate (%),[2]; 3rd week after administration,100%
same,Negative conversion rate (%),[2]; 3rd week after administration,80%
same,Egg reduction rate (%),[2]; 4th week after administration,66.2%
same,Negative conversion rate (%),[2]; 4th week after administration,60%
same,active Haematopinus observed on the body surface,swine Haematopinus,no active Haematopinus was found
same,Number of sheep negatively conversed,"[3]; sheep (20 per group), 1% injection 0.2 mg/kg bw s.c., 9th day after administration",20
same,Egg reduction rate (%),[3]; [7],100%
same,Negative conversion rate (%),[3]; [7],100%
same,EPG after administration,"[3]; sheep, eggs per gram of feces, 0.2 mg/kg bw s.c., 9th day after administration",0
same,EPG before administration,"[3]; sheep, eggs per gram of feces, baseline a day before administration",9100
same,Negative conversion number,Sarcoptes mites; 1st week,7
same,Negative conversion number,Sarcoptes mites; 2nd week,9
same,Negative conversion number,Sarcoptes mites; 3rd week,10
same,Negative conversion number,Sarcoptes mites; 4th week,10
same,Negative conversion rate (%),Sarcoptes mites; 1st week,70%
same,Negative conversion rate (%),Sarcoptes mites; 2nd week,90%
same,Negative conversion rate (%),Sarcoptes mites; 3rd week,100%
same,Negative conversion rate (%),Sarcoptes mites; 4th week,100%
same,Survival condition (survival rates/%),zebrafish; 0.5 ppm,0%
same,Survival condition (survival rates/%),zebrafish; 1.0 ppm,0%
same,Survival condition (survival rates/%),zebrafish; 1.5 ppm,0%
same,Survival condition (survival rates/%),[1]; [4],0%
same,Survival condition (survival rates/%),[1]; [5],0%
same,Survival condition (survival rates/%),[1]; [6],0%
Milbemycin [reference compound],Survival condition (survival rates/%),zebrafish; 0.5 ppm,0%
same,Survival condition (survival rates/%),zebrafish; 1.0 ppm,0%
same,Survival condition (survival rates/%),zebrafish; 1.5 ppm,0%
same,Survival condition (survival rates/%),[1]; in vivo,0%

# Reference: patent US20190151341A1, “APPLICATION OF TENVERMECTIN FOR PREVENTING AND TREATING PARASITE INFECTION” (ZHEJIANG HISUN PHARMACEUTICAL CO., LTD., priority 2016, published 2019)
